Assay results reported in BigSolDB 2.1.

O=C1NS(=O)(=O)c2ccccc21
solubility (mole fraction) (in acetonitrile, 293.15 K): 0.00739 | solubility (mole fraction) (in acetonitrile, 298.15 K): 0.00809 | solubility (mole fraction) (in acetonitrile, 303.15 K): 0.00936 | solubility (mole fraction) (in acetonitrile, 308.15 K): 0.0105 | solubility (mole fraction) (in acetonitrile, 313.15 K): 0.012 | solubility (mole fraction) (in acetonitrile, 318.15 K): 0.0143 | solubility (mole fraction) (in acetonitrile, 323.15 K): 0.0157 | solubility (mole fraction) (in ethanol, 293.15 K): 0.00821 | solubility (mole fraction) (in ethanol, 298.15 K): 0.00924 | solubility (mole fraction) (in ethanol, 303.15 K): 0.0108 | solubility (mole fraction) (in ethanol, 308.15 K): 0.0121 | solubility (mole fraction) (in ethanol, 313.15 K): 0.0144 | solubility (mole fraction) (in ethanol, 318.15 K): 0.0169 | solubility (mole fraction) (in ethanol, 323.15 K): 0.0196 | solubility (mole fraction) (in isopropanol, 293.15 K): 0.00792 | solubility (mole fraction) (in isopropanol, 298.15 K): 0.00942 | solubility (mole fraction) (in isopropanol, 303.15 K): 0.011 | solubility (mole fraction) (in isopropanol, 308.15 K): 0.013 | solubility (mole fraction) (in isopropanol, 313.15 K): 0.016 | solubility (mole fraction) (in isopropanol, 318.15 K): 0.0193 | solubility (mole fraction) (in isopropanol, 323.15 K): 0.0231 | solubility (mole fraction) (in methanol, 293.15 K): 0.00927 | solubility (mole fraction) (in methanol, 298.15 K): 0.0102 | solubility (mole fraction) (in methanol, 303.15 K): 0.012 | solubility (mole fraction) (in methanol, 308.15 K): 0.0136 | solubility (mole fraction) (in methanol, 313.15 K): 0.0161 | solubility (mole fraction) (in methanol, 318.15 K): 0.0187 | solubility (mole fraction) (in methanol, 323.15 K): 0.0218
